# Activity calls are given as the source filed them. The rule behind the calls is not given here.
# Key:
# Cholinesterase [1] = target: T1, Cholinesterase (Homo sapiens, UniProt P06276); assay: Inhibition of butyrylcholinesterase (unknown origin) using butyrylthiocholine chloride as substrate at 500 uM incubated for 15 min prior to substrate addition measured for 15 min by spectrophotometric analysis
# Homo sapiens = organism: Homo sapiens; assay: Inhibition of alpha-chymotrypsin (unknown origin) using N-succinyl-phenylalanine-p-nitroanilide as substrate at 500 uM incubated for 25 min prior to substrate by spectrophotometric analysis
# [2] = target: Acetylcholinesterase (Homo sapiens) (UniProt P22303); assay: Inhibition of acetylcholinesterase (unknown origin) using acetylthiocholine iodide as substrate at 500 uM incubated for 15 min prior to substrate addition measured for 15 min by spectrophotometric analysis
# [3] = target: T2, Beta-glucuronidase (Homo sapiens) (UniProt P08236); assay: Inhibition of beta-glucuronidase (unknown origin) using p-nitrophenyl-beta-D-glucuronide as substrate at 500 uM incubated for 30 min prior to substrate addition by spectrophotometric analysis
# T2 sequence (whole entry): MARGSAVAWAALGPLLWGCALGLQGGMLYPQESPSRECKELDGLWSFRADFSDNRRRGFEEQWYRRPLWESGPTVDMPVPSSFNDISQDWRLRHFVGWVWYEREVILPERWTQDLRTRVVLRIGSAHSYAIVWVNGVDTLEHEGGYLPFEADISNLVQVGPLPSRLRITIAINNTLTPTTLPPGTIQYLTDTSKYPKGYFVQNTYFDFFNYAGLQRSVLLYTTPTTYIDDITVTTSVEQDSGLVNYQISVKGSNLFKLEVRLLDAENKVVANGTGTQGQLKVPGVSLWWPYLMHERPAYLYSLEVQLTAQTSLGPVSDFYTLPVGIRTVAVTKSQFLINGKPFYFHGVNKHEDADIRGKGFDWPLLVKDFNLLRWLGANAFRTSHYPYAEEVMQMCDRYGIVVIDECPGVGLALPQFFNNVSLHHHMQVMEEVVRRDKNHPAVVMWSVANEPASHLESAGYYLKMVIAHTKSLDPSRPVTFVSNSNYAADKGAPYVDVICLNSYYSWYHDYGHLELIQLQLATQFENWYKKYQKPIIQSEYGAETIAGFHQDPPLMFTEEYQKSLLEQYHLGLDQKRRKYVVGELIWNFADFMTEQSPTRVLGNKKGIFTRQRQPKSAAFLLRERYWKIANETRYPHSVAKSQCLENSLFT
# Urease = Urease (Canavalia ensiformis, UniProt P07374); assay: Inhibition of Canavalia ensiformis (jack bean) urease using urea as substrate after 15 min by indophenol-based spectrophotometric analysis
# Beta-glucuronidase = target: T3, Beta-glucuronidase (Homo sapiens, UniProt P08236); assay: Inhibition of beta-glucuronidase (unknown origin) using p-nitrophenyl-beta-D-glucuronide as substrate incubated for 30 min prior to substrate addition by spectrophotometric analysis
# T3 sequence (P08236 whole entry): T2 sequence (whole entry)
# Cholinesterase [4] = target: T1, Cholinesterase; assay: Inhibition of butyrylcholinesterase (unknown origin) using butyrylthiocholine chloride as substrate incubated for 15 min prior to substrate addition measured for 15 min by spectrophotometric analysis
# [5] = target: Urease (Canavalia ensiformis) (UniProt P07374); assay: Inhibition of Canavalia ensiformis (jack bean) urease using urea as substrate at 500 uM after 15 min by indophenol-based spectrophotometric analysis
# Urease (Canavalia ensiformis), sequence (P07374 whole entry, looked up): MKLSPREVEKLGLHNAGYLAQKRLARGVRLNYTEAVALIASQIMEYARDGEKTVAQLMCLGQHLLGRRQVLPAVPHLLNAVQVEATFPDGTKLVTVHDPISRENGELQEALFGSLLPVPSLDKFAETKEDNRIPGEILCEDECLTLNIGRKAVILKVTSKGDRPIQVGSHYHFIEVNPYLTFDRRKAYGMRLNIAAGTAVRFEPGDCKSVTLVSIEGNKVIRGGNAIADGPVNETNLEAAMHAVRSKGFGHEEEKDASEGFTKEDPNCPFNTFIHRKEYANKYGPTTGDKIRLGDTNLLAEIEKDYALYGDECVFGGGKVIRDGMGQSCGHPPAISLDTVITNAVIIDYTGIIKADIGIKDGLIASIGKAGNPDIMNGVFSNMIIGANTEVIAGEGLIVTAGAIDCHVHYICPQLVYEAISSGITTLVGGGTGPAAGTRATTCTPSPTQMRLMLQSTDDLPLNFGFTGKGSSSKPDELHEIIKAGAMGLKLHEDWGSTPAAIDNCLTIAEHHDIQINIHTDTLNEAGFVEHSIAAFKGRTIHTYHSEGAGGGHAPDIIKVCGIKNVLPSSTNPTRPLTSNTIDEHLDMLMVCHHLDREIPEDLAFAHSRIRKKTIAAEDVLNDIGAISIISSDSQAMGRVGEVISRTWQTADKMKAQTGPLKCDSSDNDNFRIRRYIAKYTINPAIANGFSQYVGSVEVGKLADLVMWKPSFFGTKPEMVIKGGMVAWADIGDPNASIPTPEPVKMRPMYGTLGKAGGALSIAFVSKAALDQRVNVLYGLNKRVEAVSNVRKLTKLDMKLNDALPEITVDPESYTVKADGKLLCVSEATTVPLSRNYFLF
# T1 sequence (P06276 whole entry): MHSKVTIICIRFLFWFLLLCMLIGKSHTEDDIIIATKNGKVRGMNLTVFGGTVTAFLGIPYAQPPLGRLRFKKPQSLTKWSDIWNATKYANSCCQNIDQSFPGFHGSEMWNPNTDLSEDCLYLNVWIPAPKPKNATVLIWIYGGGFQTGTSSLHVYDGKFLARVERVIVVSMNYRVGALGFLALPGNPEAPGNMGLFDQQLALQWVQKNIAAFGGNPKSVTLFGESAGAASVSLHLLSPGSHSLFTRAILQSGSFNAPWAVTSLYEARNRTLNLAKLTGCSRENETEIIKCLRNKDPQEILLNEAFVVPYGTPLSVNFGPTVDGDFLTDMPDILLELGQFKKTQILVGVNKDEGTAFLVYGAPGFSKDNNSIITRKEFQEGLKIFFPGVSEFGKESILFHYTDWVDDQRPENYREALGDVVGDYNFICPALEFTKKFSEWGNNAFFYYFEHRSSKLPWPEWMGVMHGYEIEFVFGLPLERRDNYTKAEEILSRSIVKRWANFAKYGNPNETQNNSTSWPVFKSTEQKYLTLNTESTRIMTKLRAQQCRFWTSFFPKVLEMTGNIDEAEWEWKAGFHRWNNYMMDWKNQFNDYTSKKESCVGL
# Acetylcholinesterase (Homo sapiens), sequence (P22303 whole entry): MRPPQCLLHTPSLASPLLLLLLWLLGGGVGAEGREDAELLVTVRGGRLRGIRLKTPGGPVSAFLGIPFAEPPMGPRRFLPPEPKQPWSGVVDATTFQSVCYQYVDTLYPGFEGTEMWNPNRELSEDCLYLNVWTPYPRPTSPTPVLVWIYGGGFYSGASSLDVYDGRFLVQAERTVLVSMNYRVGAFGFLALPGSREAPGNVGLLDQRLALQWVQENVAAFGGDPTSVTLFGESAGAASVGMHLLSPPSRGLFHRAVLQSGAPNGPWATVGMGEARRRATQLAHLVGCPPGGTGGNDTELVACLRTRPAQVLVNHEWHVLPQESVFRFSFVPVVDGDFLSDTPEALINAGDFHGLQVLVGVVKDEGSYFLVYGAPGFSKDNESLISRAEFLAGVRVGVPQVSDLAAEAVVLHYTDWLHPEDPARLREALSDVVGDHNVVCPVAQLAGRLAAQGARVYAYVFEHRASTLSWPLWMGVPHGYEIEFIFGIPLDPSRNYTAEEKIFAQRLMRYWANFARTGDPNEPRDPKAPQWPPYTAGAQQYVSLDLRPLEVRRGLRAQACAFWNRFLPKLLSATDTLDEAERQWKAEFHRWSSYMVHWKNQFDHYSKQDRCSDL
# Urease, sequence (P07374 whole entry): as the sequence (P07374 whole entry, looked up) above
Compound,inhibition (Cholinesterase [1]),inhibition (Homo sapiens),inhibition [2],inhibition [3],IC50 (Urease) [µM],IC50 (Beta-glucuronidase) [µM],IC50 (Cholinesterase [4]) [µM],inhibition [5]
Cc1cc(C)n(CO)n1,inactive,inactive,inactive,inactive,94.3,–,–,–
Cc1cc(C)n(CN(CCO)Cn2nc(C)cc2C)n1,inactive,inactive,inactive,inactive,44.7,–,–,–
Cc1cc(C)n(CN(Cn2nc(C)cc2C)C2CCCCC2)n1,inactive,inactive,inactive,–,43.5,457,–,–
Cc1cc(CN(CCO)Cc2cc(C)n(C)n2)nn1C,–,inactive,inactive,inactive,–,–,68,inactive

# Reference: ChEMBL document CHEMBL3045895 (Med Chem Res, 2012)
